Test results taken from ChEMBL document CHEMBL4371010, “Thermodynamics of DNA Minor Groove Binders” (2019).
≈ marks a conversion by molar mass, not a printed value.

Key:
[1] = test system: Staphylococcus aureus; assay: Antibacterial activity against methicillin-resistant Staphylococcus aureus; type: functional
[2] = test system: Clostridioides difficile; assay: […] activity against Clostridium difficile; type: functional

Molecule `COc1cccc(C(=O)Nc2cc(C(=O)Nc3cc(C(=O)Nc4cc(C(=O)NCCCN(C)C)n(C)c4)n(CCC(C)C)c3)n(C)c2)c1` has an MIC [1] of 2 µM (≈ 1.32 µg/mL).
In the case of `CC1(C)S[C@@H]2[C@H](NC(=O)[C@H](N)c3ccc(O)cc3)C(=O)N2[C@H]1C(=O)O` [AMOXICILLIN], the MIC [1] is reported as 16.1 µM (≈ 5.88 µg/mL).
`Cn1cc(NC(=O)c2cc(NC(=O)c3ccc(/C=C/c4cnc5ccccc5c4)cc3)cn2C)cc1C(=O)NCCN1CCOCC1` [MGB-BP-3] gave an MIC [2] of 1 µg/mL (≈ 1.58 µM).
`CN[C@H](CC(C)C)C(=O)N[C@H]1C(=O)N[C@@H](CC(N)=O)C(=O)N[C@H]2C(=O)N[C@H]3C(=O)N[C@H](C(=O)N[C@H](C(=O)O)c4cc(O)cc(O)c4-c4cc3ccc4O)[C@H](O)c3ccc(c(Cl)c3)Oc3cc2cc(c3O[C@@H]2O[C@H](CO)[C@@H](O)[C@H](O)[C@H]2O[C@H]2C[C@](C)(N)[C@H](O)[C@H](C)O2)Oc2ccc(cc2Cl)[C@H]1O` [VANCOMYCIN] showed an MIC [2] of 1 µg/mL (≈ 0.69 µM).
